Laboratory results from patent US20240199605A1, “SMALL MOLECULAR INHIBITORS OF NF-kB INDUCING KINASE” (Janssen Pharmaceutica NV, priority 2019, published 2024).
Blank lines part the entries; values can stand above or below the compound they belong to.

Columns and labels:
[1] = tested on: p-IKKα levels in L363 (NIK translocated multiple myeloma) cells; test: Effect of compounds on p-IKKα levels in L363 cells (AlphaLISA SureFire Ultra); assay type: cell-based, human; details: Homo sapiens, L-363, 6 h, BAFF stimulated, MG132, 6 h, average of values, read-out: Assay 2 IC50
In short: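 Inhibition of p-IKKα (Ser176/180) read by AlphaLISA after 6 h, 37 °C compound exposure (11-point 1:3 series, 0.3% DMSO) of L363 cells pre-incubated overnight ± 250 ng/ml BAFF and plated ± BAFF ± 10 μM MG132. Normalised to BAFF/MG132/DMSO and unstimulated controls; IC50 by sigmoidal fitting, duplicates.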

[2] = target: recombinant human NF-kappaB-inducing kinase (NIK/MAP3K14) (Homo sapiens (Human), UniProt Q99558); test: Inhibition of auto-phosphorylation of recombinant human NIK/MAP3K14 (AlphaScreen); assay type: biochemical; details: NIK auto-phosphorylation, 5 μM ATP, 1 nM NIK, 2 h at 25° C.; average of values
Chain of recombinant human NF-kappaB-inducing kinase (NIK/MAP3K14) (Q99558 whole entry): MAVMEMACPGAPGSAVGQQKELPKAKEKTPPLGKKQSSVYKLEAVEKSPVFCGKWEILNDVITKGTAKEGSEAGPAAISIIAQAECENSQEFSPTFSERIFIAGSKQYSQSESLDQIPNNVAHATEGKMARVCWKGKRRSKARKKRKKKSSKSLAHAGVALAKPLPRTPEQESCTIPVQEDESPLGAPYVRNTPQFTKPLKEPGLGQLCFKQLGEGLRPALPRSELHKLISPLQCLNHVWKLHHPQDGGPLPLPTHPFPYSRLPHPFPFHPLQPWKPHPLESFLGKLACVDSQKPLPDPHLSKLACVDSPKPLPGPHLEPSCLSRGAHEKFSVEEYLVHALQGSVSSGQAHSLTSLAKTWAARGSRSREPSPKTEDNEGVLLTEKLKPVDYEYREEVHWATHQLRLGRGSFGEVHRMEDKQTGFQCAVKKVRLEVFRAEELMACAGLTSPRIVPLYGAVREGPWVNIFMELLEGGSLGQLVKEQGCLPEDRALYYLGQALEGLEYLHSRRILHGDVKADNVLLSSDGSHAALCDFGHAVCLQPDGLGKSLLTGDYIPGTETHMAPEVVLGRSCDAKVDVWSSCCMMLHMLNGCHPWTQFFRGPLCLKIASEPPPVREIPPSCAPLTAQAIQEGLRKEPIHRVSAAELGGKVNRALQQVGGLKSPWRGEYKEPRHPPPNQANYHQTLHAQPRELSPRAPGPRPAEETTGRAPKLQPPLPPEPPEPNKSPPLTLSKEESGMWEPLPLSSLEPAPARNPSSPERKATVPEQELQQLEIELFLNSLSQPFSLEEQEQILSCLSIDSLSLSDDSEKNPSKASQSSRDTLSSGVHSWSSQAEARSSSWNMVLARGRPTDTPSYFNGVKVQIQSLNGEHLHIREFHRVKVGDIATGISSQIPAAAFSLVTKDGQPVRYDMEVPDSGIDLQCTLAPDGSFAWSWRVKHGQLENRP
In short: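 GST-tagged NIK (1 nM) auto-phosphorylated with 5 μM ATP for 2 h at 25° C. in 50 mM Tris pH 7.5, 5 mM MgCl2, 1 mM EGTA, 1 mM DTT, 0.1 mM Na3VO4, 0.01% Tween 20 (0.7% DMSO). Detected by AlphaScreen via anti-phospho-IKK Ser176/180 antibody; IC50 from sigmoidal fit of % inhibition versus log concentration.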

SMILES: Cc1c(C#C[C@]2(O)CCN(C)C2=O)cccc1-c1ncc2ccnc(N)c2n1 [Example 41, (R)-3-((3-(8-Aminopyrido[3,4-d]pyrimidin-2-yl)-2-methylphenyl)ethynyl)-3-hydroxy-1-methylpyrrolidin-2-one]
IC50 [1]: > 5000 nM
IC50 [2]: 68 nM

SMILES: CN1CC[C@@](O)(C#Cc2cccc(-c3ccc4ncnc(NC5COC5)c4n3)c2)C1=O [Example 229, (R)-3-Hydroxy-1-methyl-3-((3-(4-(oxetan-3-ylamino)pyrido[3,2-d]pyrimidin-6-yl)phenyl)ethynyl)pyrrolidin-2-one]
IC50 [1]: 1910 nM
IC50 [2]: 110 nM

SMILES: Cc1ccc(C#C[C@@]2(O)CCN(C)C2=O)cc1-c1nc2c(N)ncnc2s1 [Example 11, (S)-3-((3-(7-Aminothiazolo[5,4-d]pyrimidin-2-yl)-4-methylphenyl)ethynyl)-3-hydroxy-1-methylpyrrolidin-2-one]
IC50 [1]: 2060 nM
IC50 [2]: 83 nM

SMILES: Cc1nc(N)c2nc(-c3cccc(C#C[C@](C)(O)c4cscn4)c3)ccc2n1 [Example 209, (S)-4-[3-(4-Amino-2-methyl-pyrido[3,2-d]pyrimidin-6-yl)phenyl]-2-thiazol-4-yl-but-3-yn-2-ol]
IC50 [1]: > 5000 nM
IC50 [2]: 110 nM

SMILES: Cc1ccc(C#C[C@@]2(O)CCN(C)C2=O)cc1-c1ccc2ncnc(N)c2n1 [Example 260, (S)-3-((3-(4-Aminopyrido[3,2-d]pyrimidin-6-yl)-4-methylphenyl)ethynyl)-3-hydroxy-1-methylpyrrolidin-2-one]
IC50 [1]: 2740 nM
IC50 [2]: 110 nM

SMILES: CN1CC[C@@](O)(C#Cc2cccc(-c3ccc4nc(C5CC5)nc(N)c4n3)c2)C1=O [Example 175, (R)-3-((3-(4-Amino-2-cyclopropylpyrido[3,2-d]pyrimidin-6-yl)phenyl)ethynyl)-3-hydroxy-1-methylpyrrolidin-2-one]
IC50 [1]: 230 nM
IC50 [2]: 2.4 nM

SMILES: CN1CC[C@@](O)(C#Cc2cccc(-c3ccc4ncnc(NCC#N)c4n3)c2)C1=O [Example 240, (R)-2-((6-(3-((3-Hydroxy-1-methyl-2-oxopyrrolidin-3-yl)ethynyl)phenyl)pyrido[3,2-d]pyrimidin-4-yl)amino)acetonitrile]
IC50 [1]: 570 nM
IC50 [2]: 21 nM

SMILES: CO[C@@]1(C#Cc2cccc(-c3ccc4ncnc(N)c4n3)c2)CCN(C)C1=O [Example 207, (R)-3-((3-(4-Aminopyrido[3,2-d]pyrimidin-6-yl)phenyl)ethynyl)-3-methoxy-1-methylpyrrolidin-2-one]
IC50 [1]: > 5000 nM
IC50 [2]: 180 nM

SMILES: Cc1cc(C#C[C@]2(O)CCc3cccnc32)cc(-c2ncc3ccnc(N)c3n2)c1 [Example 52, (R)-7-[2-[3-(8-Aminopyrido[3,4-d]pyrimidin-2-yl)-5-methyl-phenyl]ethynyl]-5,6-dihydrocyclopenta[b]pyridin-7-ol]
IC50 [1]: 110 nM
IC50 [2]: 2.5 nM

SMILES: CN1CC[C@@](O)(C#Cc2cccc(-c3cc4c(N)ncnc4cn3)c2)C1=O [Example 111, (R)-3-[2-[3-(4-Aminopyrido[3,4-d]pyrimidin-6-yl)phenyl]ethynyl]-3-hydroxy-1-methyl-pyrrolidin-2-one]
IC50 [1]: 160 nM
IC50 [2]: 1.2 nM

SMILES: CN1CC[C@](C#Cc2cccc(-c3ccc4ncnc(N)c4n3)c2)(C(F)F)C1=O [Example 204, (R)-3-((3-(4-Aminopyrido[3,2-d]pyrimidin-6-yl)phenyl)ethynyl)-3-(difluoromethyl)-1-methylpyrrolidin-2-one]
IC50 [1]: 1060 nM
IC50 [2]: 21 nM

SMILES: Cc1nc(N)c2nc(-c3cc(C#C[C@]4(O)CCN(C)C4=O)ccc3OC(F)(F)F)ccc2n1 [Example 237, (R)-3-((3-(4-Amino-2-methylpyrido[3,2-d]pyrimidin-6-yl)-4-(trifluoromethoxy)phenyl)ethynyl)-3-hydroxy-1-methylpyrrolidin-2-one]
IC50 [1]: 240 nM
IC50 [2]: 9.2 nM

SMILES: Cc1nc(N)c2nc(-c3cccc(C#C[C@]4(O)C(=O)N(C)C[C@H]4C)c3)ccc2n1 (stereo in doubt) [Example 294, (3S,4R*)-3-((3-(4-Amino-2-methylpyrido[3,2-d]pyrimidin-6-yl)phenyl)ethynyl)-3-hydroxy-1,4-dimethylpyrrolidin-2-one]
IC50 [1]: 2460 nM
IC50 [2]: 390 nM

SMILES: Nc1nccc2cnc(-c3cccc(C#C[C@@]4(O)CCn5ccnc54)c3)nc12 [Example 64, (S)-7-[2-[3-(8-Aminopyrido[3,4-d]pyrimidin-2-yl)phenyl]ethynyl]-5,6-dihydropyrrolo[1,2-a]imidazol-7-ol]
IC50 [1]: 730 nM
IC50 [2]: 31 nM

SMILES: Cc1nc(N)c2nc(-c3cccc(C#C[C@]4(O)C[C@H](C)N(C)C4=O)c3)ccc2n1 [Example 268, (3R,5S)-3-((3-(4-Amino-2-methylpyrido[3,2-d]pyrimidin-6-yl)phenyl)ethynyl)-3-hydroxy-1,5-dimethylpyrrolidin-2-one]
IC50 [1]: 585 nM
IC50 [2]: 65 nM

SMILES: [2H]c1nc(N)c2nc(-c3cccc(C#C[C@]4(O)CCN(C)C4=O)c3)cc(CN)c2n1 [Example 282, (R)-3-((3-(4-Amino-8-(aminomethyl)pyrido[3,2-d]pyrimidin-6-yl-2-d)phenyl)ethynyl)-3-hydroxy-1-methylpyrrolidin-2-one]
IC50 [1]: 205 nM
IC50 [2]: 5.6 nM

Stronger by IC50 [1], values ahead:

IC50 [1]: 9.6 nM
IC50 [2]: ≤ 0.5 nM
SMILES: Cc1cnc(N)c2nc(-c3cccc(C#C[C@]4(O)CCN(C)C4=O)c3)nc(C)c12 [Example 138, (R)-3-((3-(8-Amino-4,5-dimethylpyrido[3,4-d]pyrimidin-2-yl)phenyl)ethynyl)-3-hydroxy-1-methylpyrrolidin-2-one]

IC50 [1]: 16 nM
IC50 [2]: ≤ 0.5 nM
SMILES: Cc1nc(-c2cccc(C#C[C@@](C)(O)c3nccs3)c2)nc2c(N)nccc12 [Example 48, (R)-4-(3-(8-Amino-4-methylpyrido[3,4-d]pyrimidin-2-yl)phenyl)-2-(thiazol-2-yl)but-3-yn-2-ol]

IC50 [1]: 6.9 nM
IC50 [2]: ≤ 0.5 nM
SMILES: CNc1cc(-c2cccc(C#C[C@]3(O)CCN(C)C3=O)c2)nc2c(N)ncnc12 [Example 296, (R)-3-[2-[3-[4-Amino-8-(methylamino)pyrido[3,2-d]pyrimidin-6-yl]phenyl]ethynyl]-3-hydroxy-1-methyl-pyrrolidin-2-one]

IC50 [1]: 39 nM
IC50 [2]: 1.2 nM
SMILES: CN1CC[C@@](O)(C#Cc2cccc(-c3cc(N4CC(F)(F)C4)c4ncnc(N)c4n3)c2)C1=O [Example 300, (R)-3-[2-[3-[4-Amino-8-(3,3-difluoroazetidin-1-yl)pyrido[3,2-d]pyrimidin-6-yl]phenyl]ethynyl]-3-hydroxy-1-methyl-pyrrolidin-2-one]

IC50 [1]: 5.4 nM
IC50 [2]: 0.8 nM
SMILES: Cc1nc(-c2cccc(C#C[C@]3(O)CCN(C)C3=O)c2)nc2c(N)ncnc12 [Example 4, (R)-3-((3-(8-Amino-4-methylpyrimido[5,4-d]pyrimidin-2-yl)phenyl)ethynyl)-3-hydroxy-1-methylpyrrolidin-2-one]

IC50 [1]: 16 nM
IC50 [2]: 0.9 nM
SMILES: CN1CC[C@@](O)(C#Cc2cccc(-c3ccc4nc(F)nc(N)c4n3)c2)C1=O [Example 288, (R)-3-((3-(4-Amino-2-fluoropyrido[3,2-d]pyrimidin-6-yl)phenyl)ethynyl)-3-hydroxy-1-methylpyrrolidin-2-one]

IC50 [1]: 11 nM
IC50 [2]: 0.9 nM
SMILES: CN1CC[C@@](O)(C#Cc2cccc(-c3cc(-n4cccn4)c4ncnc(N)c4n3)c2)C1=O [Example 303, (R)-3-[2-[3-(4-Amino-8-pyrazol-1-yl-pyrido[3,2-d]pyrimidin-6-yl)phenyl]ethynyl]-3-hydroxy-1-methyl-pyrrolidin-2-one]

IC50 [1]: 27 nM
IC50 [2]: 0.8 nM
SMILES: Cc1nc(-c2cccc(C#C[C@]3(O)CCc4cccnc43)c2)nc2c(N)nccc12 [Example 60, (R)-7-((3-(8-Amino-4-methylpyrido[3,4-d]pyrimidin-2-yl)phenyl)ethynyl)-6,7-dihydro-5H-cyclopenta[b]pyridin-7-ol]

IC50 [1]: 12 nM
IC50 [2]: ≤ 0.5 nM
SMILES: CCc1cnc(N)c2nc(-c3cccc(C#C[C@]4(O)CCN(C)C4=O)c3)ncc12 [Example 129, (R)-3-((3-(8-Amino-5-ethylpyrido[3,4-d]pyrimidin-2-yl)phenyl)ethynyl)-3-hydroxy-1-methylpyrrolidin-2-one]

IC50 [1]: 8.5 nM
IC50 [2]: ≤ 0.5 nM
SMILES: [2H]C([2H])([2H])N1CC[C@@](O)(C#Cc2ccc(C)c(-c3nc4c(N)ncnc4s3)c2)C1=O [Example 216, (R)-3-[2-[3-(7-Aminothiazolo[5,4-d]pyrimidin-2-yl)-4-methyl-phenyl]ethynyl]-3-hydroxy-1-(trideuteriomethyl)pyrrolidin-2-one]

IC50 [1]: 22 nM
IC50 [2]: 0.8 nM
SMILES: CN1CC[C@@](O)(C#Cc2cccc(-c3ccc4nc(CF)nc(N)c4n3)c2)C1=O [Example 170, (R)-3-((3-(4-Amino-2-(fluoromethyl)pyrido[3,2-d]pyrimidin-6-yl)phenyl)ethynyl)-3-hydroxy-1-methylpyrrolidin-2-one]

IC50 [1]: 18 nM
IC50 [2]: 3.1 nM
SMILES: CN1CC[C@@](O)(C#Cc2cccc(-c3cc(N(C)C)c4ncnc(N)c4n3)c2)C1=O [Example 295, (R)-3-[2-[3-[4-Amino-8-(dimethylamino)pyrido[3,2-d]pyrimidin-6-yl]phenyl]ethynyl]-3-hydroxy-1-methyl-pyrrolidin-2-one]

IC50 [1]: 57 nM
IC50 [2]: 0.7 nM
SMILES: CN1CC[C@@](O)(C#Cc2cccc(-c3ccc4ncnc(N)c4c3)c2)C1=O [Example 16, (R)-3-[2-[3-(4-Aminoquinazolin-6-yl)phenyl]ethynyl]-3-hydroxy-1-methyl-pyrrolidin-2-one]
